Results on one compound are retold here after PMC11816618, “Pharmacokinetic profile and in vivo anticancer efficacy of anagrelide administered subcutaneously in rodents” (Drug Delivery, 2025).

Series [1] is described as follows: Tolerability (body weight, well-being) during the UZLX-GIST2B efficacy experiment. As for the experimental part:
Before and during the treatments, tumor volumes (mm^3) were determined by three dimensional measurements (x × y × z) with a digital caliper. The treatments started after tumors reached an average volume between 150 and 300 mm^3, followed by randomizing the mice to the four treatment groups with an even tumor volume distribution per group. PO-treated mice received 2.5 mg/kg of ANA BID. Mice in the control group were injected with 50 µL of miglyol vehicle, and mice receiving SC ANA were injected Q4D with 35 mg/kg or 70 mg/kg into the loose skin between the shoulder blades (days 1, 5, and 9). During the experiment, tumor volumes were measured on days 1, 4, 8, and 11. In addition, animal well-being was visually monitored, and body weights were measured every day. Absolute tumor volume changes between the first and last days were considered as one of the measurements of treatment efficacy. […] Tumors were collected, weighed, and snap-frozen in liquid nitrogen, and livers of the mice were evaluated by visual inspection.
Statistical analyses were performed using IBM SPSS Statistics 28.0.0.0 (Chicago, IL). p Values below .05 were considered statistically significant. Statistical significance of body weights, tumor volumes, and tumor weights between the treatment groups was analyzed using the independent samples Kruskal–Wallis test and Dunn’s pairwise tests adjusted with Bonferroni’s correction. […]

Series [2] in a line: Clinical observation during the rat PK experiments. Particulars: single dose IV 0.5, PO 2.5, SC 1.0, 7.0 or 35.0 mg/kg, SD rats. The series is classed as in vivo, Sprague-Dawley rats. How it is done: To compare PK values of the three different administration routes, 11 male Sprague-Dawley® (SD) rats (6–8 weeks old) were administered a single dose of ANA either via IV injection (n = 3, 0.5 mg/kg), PO (n = 3, 2.5 mg/kg), or SC injection (n = 5, 1.0 mg/kg). To monitor the sustained release of SC ANA in the long term, 10 male SD rats were treated with a single dose of either 7.0 mg/kg (n = 5) or 35.0 mg/kg (n = 5). The rats were purchased from SPF Biotechnology Co. Ltd. (Beijing, China). Animals were acclimated to the test facility for at least three days, during which their general health was checked by veterinary staff or other authorized personnel. Animals were kept in polycarbonate cages containing absorbent corncob bedding, with a maintained temperature range of +20–25 °C and a 12-h light/dark cycle. Animals had access to food and drinking water ad libitum during acclimation and the experiment. At the end of the study, the rats were euthanized by exposure to an increasing concentration of CO2.

For series [3] the following is noted: Petrides et al., 2009, 2018, cited from earlier work.

In the case of `O=C1CN2Cc3c(ccc(Cl)c3Cl)N=C2N1` [Anagrelide, imidazo‐[2,1‐b] quinazolin‐2[3H]‐one, 6,7‐dichloro‐1,5‐dihydro, monohydro‐chloride], the relative body weight entry in series [1] (2.5 mg/kg PO BID, 11 days, still in the acceptable range, p = .016) was “significantly lower relative body weights”. The “finding at the injection site” value in series [1] (35 or 70 mg/kg SC Q4D in miglyol) is given as “drug precipitates near the injection site”. Also, the clinical symptoms result in series [2] is “No abnormal clinical symptoms were observed”. In addition, in series [3] (after PO drug administration, ref Gaver et al., 1981), the “time of peak plasma concentration” value was “approximately one hour”. Besides, the bioavailability result in series [3] (taken orally, ref Spencer & Brogden, 1994) is on record as “approximately 70%”.
